Measured values: US20260309717A1, “PROXIMITY INDUCING SYSTEM AND USES THEREOF” (SORBONNE UNIVERSITE, priority 2022, published 2026)

Legend:
[1] = biological target: T1, ^FIREmate and ^FIREtag (TOM20-ECFP-^FIREmate / mCherry-^FIREtag) (Halorhodospira halophila, UniProt P16113, A30V/C69G/D97P/F96I, form not given/G21E/G25R/K17N/M100R/M109L/Q41L/Q99S/S72T/T101G/V83A/Y94W/Y98T); experiment: Recruitment of cytoplasmic mCherry-^FIREtag to mitochondria (TOM20-ECFP-^FIREmate), time-lapse confocal microscopy, HeLa cells; assay type: cell-based; conditions: 10 μM
T1 construct: TOM20(1-34)-ECFP-FIREmate and mCherry-FIREtag in HeLa or U2OS cells
T1 sequence (P16113 1-114 A30V/C69G/D97P/F96I/G21E/G25R/K17N/M100R/M109L/Q41L/Q99S/S72T/T101G/V83A/Y94W/Y98T): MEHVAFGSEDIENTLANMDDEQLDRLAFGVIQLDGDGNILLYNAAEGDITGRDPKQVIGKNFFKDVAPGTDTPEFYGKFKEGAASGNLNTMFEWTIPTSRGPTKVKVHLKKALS
Experimental: FIGS. 3A-E illustrate the recruitment of cytoplasmic proteins to mitochondria with the proximity inducing system described herein. FIG. 3A is a schematic representation of the experimental design wherein HeLa cells co-expressing mCherry-^FIREtag and Tom20-ECFP-^FIREmate were treated with 10 μM of match (either HBR-2,5DM or HMBR), and imaged by time-lapse confocal microscopy. FIGS. 3B-C are graphs showing the temporal evolution of the FIRE signal detected upon addition at 0 min of HBR-2,5DM (match1-3B) or HMBR (match2-3C). Data represents the mean values±SD of 20 cells from n=3 independent experiments (3B, D), or of 10 cells from n=3 independent experiments (3C, E). FIGS. 3D-E are sets of representative confocal micrographs of cells before (0 min) and after (5 min) addition of HBR-2,5DM (match1-3D) or HMBR (match2-3E) (mCherry: ex/em 561/606-675 nm; FIRE: ex/em 488/508-570 nm; ECFP: ex/em 445/455-499 nm). […] Scale bars are 20 μm.
FIGS. 4A-D illustrate the recruitment over time of cytoplasmic proteins to mitochondria with the proximity inducing system described herein. (4A, C) HeLa cells co-expressing mCherry-^FIREtag and Tom20-ECFP-^FIREmate were treated with 10 μM HBR-2,5DM and imaged by time-lapse confocal microscopy at 1 image per 5 seconds. […] FIG. 4C is a graph showing the temporal evolution of the FIRE signal detected in HeLa cells upon addition of HBR-2,5DM at 0 sec. […] FIG. 4D is a graph showing the temporal evolution of the FIRE signal detected in U2OS cells upon addition of HBR-2,5DM at 0 min. […]
The confocal micrographs were acquired on a Zeiss LSM 980 Laser Scanning Microscope equipped with a plan apochromat 63x/1.4 NA oil immersion objective. […] The images were analyzed using Icy (2.4.0.0) and Fiji (Image J). In short, to track fluorescence signal in a specific organelle, a ROI (region of interest) was determined by masking the signal in the ECFP (Enhanced Cyan Fluorescent Protein) channel with the plug-in HK-means with the following parameters: intensity class equals 100, minimum object size (pixels or px) equals 500, maximum object size (px) equals 1500-3000. […]

[2] = biological target: T2, mCherry-^FIREtag / ^FIREmate-ECFP-Giantin (Halorhodospira halophila, UniProt P16113, A30V/C69G/D97P/F96I, form not given/G21E/G25R/K17N/M100R/M109L/Q41L/Q99S/S72T/T101G/V83A/Y94W/Y98T); experiment: Reversibility of the ternary assembly (washout), time-lapse spinning-disk confocal microscopy, HeLa cells; assay type: cell-based; conditions: 10 μM
T2 construct: FIREmate-ECFP-Giantin(3131-3259) and mCherry-FIREtag in HeLa cells
T2 sequence (P16113 1-114 A30V/C69G/D97P/F96I/G21E/G25R/K17N/M100R/M109L/Q41L/Q99S/S72T/T101G/V83A/Y94W/Y98T): T1 sequence (P16113 1-114 A30V/C69G/D97P/F96I/G21E/G25R/K17N/M100R/M109L/Q41L/Q99S/S72T/T101G/V83A/Y94W/Y98T)
Experimental: HeLa cells co-expressing mCherry-^FIREtag and ^FIREmate-ECFP-Giantin were treated with 10 μM HBR-2,5DM (match1), washed with HBR-2,5DM-free medium and then treated with 10 μM HBIR-3M. Cells were imaged by time-lapse spinning-disk confocal microscopy. FIGS. 9A-D are sets of representative confocal micrographs of untreated cells (9A), cells after addition of HBR-2,5DM (match1) (9B), cells after washout of HBR-2,5DM (match1) (9C), and cells after addition of HBIR-3M (9D). (mCherry: ex/em 561/606-675 nm; FIRE: ex/em 488/508-570 nm). Scale bars are 10 μm.
To test whether formation of the fluorescent ternary assembly could be reversed though removal of the fluorogen, the fusion proteins mCherry-^FIREtag (red fluorescence) and ^FIREmate-ECFP-Giantin (blue fluorescence) were co-expressed in Hela cells (FIG. 9A). Formation of a fluorescent ternary assembly between ^FIREtag, ^FIREmate and HBR-2,5DM was induced by addition of 10 μM of HBR-2,5DM (FIG. 9B). […] The ability to reverse the fluorescence ternary assembly at will allowed to induce repeated catch and release cycles through sequential addition and removal of HBR-2,5DM. The ability to control protein proximity through addition and removal of a molecular inducer of proximity is unprecedented and opens great prospect to control the proximity of two proteins with high temporal resolution.

Cc1cc(/C=C2\SC(=S)NC2=O)c(C)cc1O [HBR-2,5DM, (Z)-5-(4-hydroxy-2,5-dimethylbenzylidene)-2-thioxo-1,3-thiazolidin-4-one]
half-time of formation of the ternary fluorescent assembly ([1]; 1 image per 5 seconds): about 20 seconds | translocation of mCherry-^FIREtag from cytosol to mitochondria ([1]; 5 min): very rapid translocation of the mCherry-^FIREtag fusion protein from the cytosol to mitochondria | FIRE signal (fluorescence) at the mitochondria ([1]; ex/em 488/508-570 nm): simultaneous appearance of a strong green fluorescent signal | dissociation of the fluorescent ternary assembly after washout ([2]; then washing with HBR-2,5DM-free medium): rapid dissociation of the fluorescent ternary assembly | reversibility of the fluorescent ternary assembly ([2]; then washout): full reversibility
